Laboratory results: the supplement of paper PMC10307832

These cell lines were tested with Cc1ccc2nc(NCCN)c3ncc(C)n3c2c1 + NC(=O)Nc1cc(-c2cccc(F)c2)sc1C(=O)N[C@H]1CCCNC1 [AZD7762] (partner 0.2 µM) (assay: relative viability (nuclei count vs DMSO), 5 days (fraction); higher = more cells survive). Details: first compound 0.04 µM.
How it was run: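 For relative viability, nuclei counts in treated wells were divided by those in vehicle wells. Lung cancer cell lines had been pin-tool dosed in 1536-well plates the day after seeding and cultured for 5 days, then fixed and stained in one step (final 0.05% Triton X-100, 1% formaldehyde, 1 ug/ml Hoechst) and imaged at 4×. Doses were one drug alone or a fixed anchor-drug dose plus five library-drug doses (not always all listed) in √10 steps, and values are duplicate-plate medians.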

Row | Cell Line | relative viability
1 | LK-2 | 0.393
2 | NCI-H2087 | 1.35
3 | NCI-H358 | 0.51
4 | NCI-H2170 | 0.874
5 | H3255 | 0.923
6 | LOU-NH91 | 0.869
7 | NCI-H1793 | 0.506
8 | NCI-H2405 | 0.855
9 | HOP-62 | 0.849
10 | LU99A | 0.485
11 | BEN | 0.719
12 | HARA | 0.401
13 | HCC-78 | 0.828
14 | NCI-H322M | 0.446
15 | LCLC-97TM1 | 0.409
16 | A-427 | 0.816
17 | NCI-H441 | 1.35

Row | Cell Line | relative viability
18 | NCI-H1734 | 0.573
19 | NCI-H460 | 0.614
20 | NCI-H2347 | 0.719
21 | NCI-H1395 | 0.409
22 | 201T | 0.639
23 | NCI-H1915 | 0.646
24 | HCC-827 | 0.222
25 | LXF-289 | 1.19
26 | NCI-H23 | 0.282
27 | NCI-H647 | 0.44
28 | CAL-12T | 0.657
29 | NCI-H1651 | 0.536
30 | EPLC-272H | 0.228
31 | NCI-H1355 | 0.75
32 | NCI-H3122 | 1.05
33 | NCI-H1437 | 1.08

Same assay, conditions: first compound 0.1265 µM

Row | Cell Line | relative viability
34 | LK-2 | 0.612
35 | NCI-H2087 | 1.25
36 | NCI-H358 | 0.573
37 | NCI-H2170 | 0.897
38 | H3255 | 0.963
39 | LOU-NH91 | 0.789
40 | NCI-H1793 | 0.411
41 | NCI-H2405 | 0.682
42 | HOP-62 | 0.638
43 | LU99A | 0.425
44 | BEN | 0.738
45 | HARA | 0.33
46 | HCC-78 | 0.72
47 | NCI-H322M | 0.703
48 | LCLC-97TM1 | 0.321
49 | A-427 | 0.748
50 | NCI-H441 | 1.09

Row | Cell Line | relative viability
51 | NCI-H1734 | 0.596
52 | NCI-H460 | 0.636
53 | NCI-H2347 | 0.733
54 | NCI-H1395 | 0.435
55 | 201T | 0.569
56 | NCI-H1915 | 0.702
57 | HCC-827 | 0.265
58 | LXF-289 | 1.1
59 | NCI-H23 | 0.297
60 | NCI-H647 | 0.517
61 | CAL-12T | 0.649
62 | NCI-H1651 | 0.511
63 | EPLC-272H | 0.404
64 | NCI-H1355 | 0.685
65 | NCI-H3122 | 1.04
66 | NCI-H1437 | 1.12

Same assay, conditions: first compound 0.4 µM

Row | Cell Line | relative viability
67 | NCI-H2087 | 1.27
68 | NCI-H358 | 0.413
69 | NCI-H2170 | 0.821
70 | H3255 | 0.829
71 | LOU-NH91 | 0.753
72 | NCI-H1793 | 0.361
73 | NCI-H2405 | 0.758
74 | HOP-62 | 0.528
75 | LU99A | 0.314
76 | BEN | 0.538
77 | HARA | 0.256
78 | HCC-78 | 0.616
79 | NCI-H322M | 0.638
80 | LCLC-97TM1 | 0.216
81 | A-427 | 0.748
82 | NCI-H441 | 1.05

Row | Cell Line | relative viability
83 | NCI-H1734 | 0.517
84 | NCI-H460 | 0.631
85 | NCI-H2347 | 0.687
86 | NCI-H1395 | 0.43
87 | 201T | 0.66
88 | NCI-H1915 | 0.551
89 | HCC-827 | 0.224
90 | LXF-289 | 1.08
91 | NCI-H23 | 0.261
92 | NCI-H647 | 0.38
93 | CAL-12T | 0.557
94 | NCI-H1651 | 0.409
95 | EPLC-272H | 0.214
96 | NCI-H1355 | 0.72
97 | NCI-H3122 | 0.98
98 | NCI-H1437 | 1.16

Same assay, conditions: first compound 1.265 µM

Row | Cell Line | relative viability
99 | NCI-H2087 | 1.28
100 | NCI-H358 | 0.515
101 | NCI-H2170 | 0.761
102 | H3255 | 0.76
103 | LOU-NH91 | 0.702
104 | NCI-H1793 | 0.39
105 | NCI-H2405 | 0.671
106 | HOP-62 | 0.543
107 | LU99A | 0.286
108 | BEN | 0.68
109 | HARA | 0.274
110 | HCC-78 | 0.752
111 | NCI-H322M | 0.552
112 | LCLC-97TM1 | 0.269
113 | A-427 | 0.721
114 | NCI-H441 | 1.25

Row | Cell Line | relative viability
115 | NCI-H1734 | 0.559
116 | NCI-H460 | 0.7
117 | NCI-H2347 | 0.794
118 | NCI-H1395 | 0.422
119 | 201T | 0.598
120 | NCI-H1915 | 0.728
121 | HCC-827 | 0.207
122 | LXF-289 | 1.06
123 | NCI-H23 | 0.228
124 | NCI-H647 | 0.574
125 | CAL-12T | 0.576
126 | NCI-H1651 | 0.46
127 | EPLC-272H | 0.177
128 | NCI-H1355 | 0.644
129 | NCI-H3122 | 0.973
130 | NCI-H1437 | 0.901

Same assay, conditions: first compound 4 µM

Row | Cell Line | relative viability
131 | LK-2 | 0.347
132 | NCI-H2087 | 1.26
133 | NCI-H358 | 0.401
134 | NCI-H2170 | 0.845
135 | H3255 | 0.746
136 | LOU-NH91 | 0.733
137 | NCI-H1793 | 0.417
138 | NCI-H2405 | 0.639
139 | HOP-62 | 0.595
140 | LU99A | 0.354
141 | BEN | 0.783
142 | HARA | 0.337
143 | HCC-78 | 0.586
144 | NCI-H322M | 0.605
145 | LCLC-97TM1 | 0.225
146 | A-427 | 0.723
147 | NCI-H441 | 1.19

Row | Cell Line | relative viability
148 | NCI-H1734 | 0.546
149 | NCI-H460 | 0.541
150 | NCI-H2347 | 0.636
151 | NCI-H1395 | 0.398
152 | 201T | 0.618
153 | NCI-H1915 | 0.704
154 | HCC-827 | 0.18
155 | LXF-289 | 1.12
156 | NCI-H23 | 0.22
157 | NCI-H647 | 0.148
158 | CAL-12T | 0.481
159 | NCI-H1651 | 0.445
160 | EPLC-272H | 0.166
161 | NCI-H1355 | 0.763
162 | NCI-H3122 | 1.05
163 | NCI-H1437 | 1.04
